The conditions of series [1]: rat plasma, 37° C., incubation time 0 hr (normalization point).
Series [2] has as its target T1, hNav1.5 (Homo sapiens, UniProt Q14524). Put plainly: cell-based. The conditions noted are these: IonWorks Quattro; Table 6; read-out: IC50 (μM) Nav1.5. For orientation: The patch-clamp technique gives a direct electrical read-out from membranes.
For series [3], the target named is T2, hNav1.7 (Homo sapiens, UniProt Q15858). Put plainly: cell-based. Format: cell-based.
In series [4] the target is hNav1.8 (Homo sapiens, UniProt Q9Y5Y9). Put plainly: cell-based. Format: cell-based.
For series [5], the system named is hNav1.8. Put plainly: cell-based. The conditions noted are these: hNav1.8 / hNav1.7. Format: cell-based, human.
For series [6], the target named is T1, hNav1.5. Put plainly: cell-based. Format: cell-based.
For a further series, the target named is hNav1.4 (Homo sapiens, UniProt P35499). Put plainly: cell-based. Format: cell-based. The conditions noted are these: 100 nM; held at −83 mV.
Another series has as its target hNav1.3 (Homo sapiens, UniProt Q9NY46). Put plainly: cell-based. The following applies: 300 nM; held at −80 mV. Format: cell-based.
Series [7] relates to TTX-sensitive Nav channels in mouse DRG neuron. The conditions noted are these: for 1.x/1.7: mTTX-S / hNav1.7.
Series [8] relates to TTX-resistant Nav channels in mouse DRG neuron.
Series [9] deals with T2, hNav1.7. Put plainly: cell-based. The following applies: ratio of IonWorks Quattro IC50 values, Nav1.4 over Nav1.7.
The conditions of series [10]: human plasma, 37° C., incubation 0 hr (normalisation point).
For series [11] the following is noted: cyno plasma, 37° C., incubation 0 hr (normalisation point).
The conditions of series [12]: mouse plasma, 37° C., incubation 0 hr (normalisation point).

In general, IC50 refers to the concentration that inhibits the measured activity by half.

Where “and” joins values, the source holds several entries; their conditions need not be identical. Identical values can stand only once. Entries after “also recorded” stand apart in the source; their conditions may differ. Like-named read-outs stand apart in the source and are kept apart here.

T2 sequence (Q15858 whole entry): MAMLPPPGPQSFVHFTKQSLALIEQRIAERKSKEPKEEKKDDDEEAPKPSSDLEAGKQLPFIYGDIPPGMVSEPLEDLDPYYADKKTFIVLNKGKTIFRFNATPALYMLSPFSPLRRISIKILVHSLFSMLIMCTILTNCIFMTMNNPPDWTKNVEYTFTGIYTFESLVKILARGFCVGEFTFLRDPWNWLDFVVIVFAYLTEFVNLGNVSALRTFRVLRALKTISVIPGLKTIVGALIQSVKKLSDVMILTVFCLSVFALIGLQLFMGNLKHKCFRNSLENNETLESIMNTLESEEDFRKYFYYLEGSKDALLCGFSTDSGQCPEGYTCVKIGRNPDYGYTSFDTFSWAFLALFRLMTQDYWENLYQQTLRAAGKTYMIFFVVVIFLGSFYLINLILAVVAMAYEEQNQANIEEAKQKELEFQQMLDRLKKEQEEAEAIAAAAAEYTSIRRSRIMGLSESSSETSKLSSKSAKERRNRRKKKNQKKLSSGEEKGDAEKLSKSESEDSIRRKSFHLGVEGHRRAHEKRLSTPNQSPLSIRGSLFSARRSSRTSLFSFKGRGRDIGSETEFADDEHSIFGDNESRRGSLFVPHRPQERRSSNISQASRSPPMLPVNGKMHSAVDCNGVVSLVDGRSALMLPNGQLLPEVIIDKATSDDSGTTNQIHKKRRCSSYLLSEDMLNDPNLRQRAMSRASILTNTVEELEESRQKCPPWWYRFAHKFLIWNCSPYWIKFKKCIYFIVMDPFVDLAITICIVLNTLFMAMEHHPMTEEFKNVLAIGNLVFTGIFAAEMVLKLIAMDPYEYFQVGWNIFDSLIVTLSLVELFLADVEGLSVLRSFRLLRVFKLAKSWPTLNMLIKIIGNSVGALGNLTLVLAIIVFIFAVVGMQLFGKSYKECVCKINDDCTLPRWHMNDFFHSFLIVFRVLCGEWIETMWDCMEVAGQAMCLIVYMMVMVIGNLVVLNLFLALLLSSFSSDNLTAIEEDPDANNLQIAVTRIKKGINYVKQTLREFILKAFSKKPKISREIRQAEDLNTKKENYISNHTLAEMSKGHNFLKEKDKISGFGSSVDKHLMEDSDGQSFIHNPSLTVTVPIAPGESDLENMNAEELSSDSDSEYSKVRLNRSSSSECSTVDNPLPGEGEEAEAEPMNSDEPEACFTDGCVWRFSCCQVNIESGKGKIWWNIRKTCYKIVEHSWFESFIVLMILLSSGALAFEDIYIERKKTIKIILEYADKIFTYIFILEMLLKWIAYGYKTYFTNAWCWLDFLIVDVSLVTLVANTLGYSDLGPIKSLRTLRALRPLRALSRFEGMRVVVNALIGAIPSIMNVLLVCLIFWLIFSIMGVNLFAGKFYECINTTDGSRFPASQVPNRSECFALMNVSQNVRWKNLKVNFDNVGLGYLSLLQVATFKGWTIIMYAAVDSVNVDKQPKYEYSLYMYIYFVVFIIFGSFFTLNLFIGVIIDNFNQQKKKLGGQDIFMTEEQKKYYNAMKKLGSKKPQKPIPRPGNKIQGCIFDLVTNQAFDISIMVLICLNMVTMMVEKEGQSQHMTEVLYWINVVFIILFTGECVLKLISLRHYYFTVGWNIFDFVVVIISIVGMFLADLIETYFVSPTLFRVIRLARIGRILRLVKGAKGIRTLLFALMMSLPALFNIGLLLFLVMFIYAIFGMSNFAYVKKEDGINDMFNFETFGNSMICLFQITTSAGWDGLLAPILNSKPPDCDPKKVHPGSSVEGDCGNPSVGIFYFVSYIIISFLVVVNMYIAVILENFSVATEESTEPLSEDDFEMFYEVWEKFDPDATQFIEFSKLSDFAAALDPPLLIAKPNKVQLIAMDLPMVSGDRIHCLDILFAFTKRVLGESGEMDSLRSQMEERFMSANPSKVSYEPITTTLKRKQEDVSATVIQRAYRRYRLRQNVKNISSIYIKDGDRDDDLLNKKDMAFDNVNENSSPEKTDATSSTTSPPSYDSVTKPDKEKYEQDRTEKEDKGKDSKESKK
T1 sequence (Q14524 whole entry): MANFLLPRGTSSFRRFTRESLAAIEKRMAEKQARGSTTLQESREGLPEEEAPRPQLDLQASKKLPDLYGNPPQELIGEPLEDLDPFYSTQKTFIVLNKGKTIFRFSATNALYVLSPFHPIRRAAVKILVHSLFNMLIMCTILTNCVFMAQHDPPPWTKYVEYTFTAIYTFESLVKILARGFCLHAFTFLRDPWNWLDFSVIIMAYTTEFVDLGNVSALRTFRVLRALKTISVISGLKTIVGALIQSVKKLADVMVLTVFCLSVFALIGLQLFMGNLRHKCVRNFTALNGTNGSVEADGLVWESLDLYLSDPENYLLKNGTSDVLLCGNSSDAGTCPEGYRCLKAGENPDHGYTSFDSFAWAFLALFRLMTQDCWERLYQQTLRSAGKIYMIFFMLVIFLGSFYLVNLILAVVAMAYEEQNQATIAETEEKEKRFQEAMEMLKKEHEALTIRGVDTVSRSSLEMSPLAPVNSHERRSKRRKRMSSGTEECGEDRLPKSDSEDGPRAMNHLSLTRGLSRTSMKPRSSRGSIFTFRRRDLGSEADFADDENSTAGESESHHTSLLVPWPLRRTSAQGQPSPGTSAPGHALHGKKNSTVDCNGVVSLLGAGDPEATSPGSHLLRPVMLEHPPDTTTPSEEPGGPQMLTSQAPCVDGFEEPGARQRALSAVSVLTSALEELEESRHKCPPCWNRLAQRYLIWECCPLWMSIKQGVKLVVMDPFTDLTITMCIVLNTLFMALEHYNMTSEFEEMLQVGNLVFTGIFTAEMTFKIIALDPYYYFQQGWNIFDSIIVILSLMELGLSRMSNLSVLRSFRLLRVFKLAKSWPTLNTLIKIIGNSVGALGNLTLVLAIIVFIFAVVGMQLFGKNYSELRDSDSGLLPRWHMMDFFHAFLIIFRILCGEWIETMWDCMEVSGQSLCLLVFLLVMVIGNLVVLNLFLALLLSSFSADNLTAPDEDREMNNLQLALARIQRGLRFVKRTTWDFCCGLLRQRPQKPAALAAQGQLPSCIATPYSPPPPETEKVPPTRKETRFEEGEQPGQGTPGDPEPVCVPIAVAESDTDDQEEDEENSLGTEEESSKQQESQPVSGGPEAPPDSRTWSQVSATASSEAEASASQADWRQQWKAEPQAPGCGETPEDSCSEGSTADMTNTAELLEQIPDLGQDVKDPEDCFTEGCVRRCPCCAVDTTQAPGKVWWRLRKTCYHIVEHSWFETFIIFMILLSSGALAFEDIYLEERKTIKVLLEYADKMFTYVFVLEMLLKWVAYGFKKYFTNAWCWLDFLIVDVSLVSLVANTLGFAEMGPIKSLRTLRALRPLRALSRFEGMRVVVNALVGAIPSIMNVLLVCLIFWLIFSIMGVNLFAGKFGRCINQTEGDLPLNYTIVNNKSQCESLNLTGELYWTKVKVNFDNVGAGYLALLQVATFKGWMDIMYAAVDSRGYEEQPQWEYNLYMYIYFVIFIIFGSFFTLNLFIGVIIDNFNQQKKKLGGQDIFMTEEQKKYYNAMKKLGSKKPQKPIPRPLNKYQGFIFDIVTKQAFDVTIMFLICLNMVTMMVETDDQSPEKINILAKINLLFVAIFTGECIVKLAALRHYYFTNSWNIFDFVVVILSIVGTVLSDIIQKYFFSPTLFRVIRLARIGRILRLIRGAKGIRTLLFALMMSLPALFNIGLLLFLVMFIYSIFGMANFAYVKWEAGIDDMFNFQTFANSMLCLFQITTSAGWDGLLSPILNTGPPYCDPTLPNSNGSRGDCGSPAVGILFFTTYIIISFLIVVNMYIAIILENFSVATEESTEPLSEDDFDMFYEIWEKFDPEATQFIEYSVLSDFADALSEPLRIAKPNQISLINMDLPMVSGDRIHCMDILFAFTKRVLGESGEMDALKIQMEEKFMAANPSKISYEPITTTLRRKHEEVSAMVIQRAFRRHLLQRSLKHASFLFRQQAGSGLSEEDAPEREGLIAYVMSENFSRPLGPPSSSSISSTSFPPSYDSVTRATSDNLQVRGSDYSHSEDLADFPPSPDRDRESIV

In the case of `CC[C@H](C)[C@H](NC(=O)[C@H](CCCCN)NC(=O)[C@H](CCCNC(=N)N)NC(=O)[C@@H]1CSSC[C@@H]2NC(=O)[C@H](C)NC(=O)[C@H](CCCNC(=N)N)NC(=O)[C@H](CCCCN)NC(=O)[C@H](CO)NC(=O)[C@H](CC(=O)O)NC(=O)[C@@H]3CSSC[C@H](NC(=O)[C@H](CCC(=O)O)NC(=O)[C@H](CC(C)C)NC(=O)CNC(=O)[C@H](CCC(=O)O)NC(=O)[C@H](CSSC[C@H](NC(=O)[C@@H](N)Cc4ccc(O)cc4)C(=O)N[C@@H](CCC(N)=O)C(=O)N[C@@H](CCCCN)C(=O)N[C@@H](Cc4c[nH]c5ccccc45)C(=O)N[C@@H](CCSC)C(=O)N[C@@H](Cc4c[nH]c5ccccc45)C(=O)N[C@@H]([C@@H](C)O)C(=O)N3)NC2=O)C(=O)N[C@@H](CCCCN)C(=O)N[C@@H](CC(C)C)C(=O)N[C@@H](Cc2c[nH]c3ccccc23)C(=O)N1)C(=O)N[C@@H](Cc1c[nH]c2ccccc12)C(N)=O` [SEQ ID NO: 112, [Glu20,Trp29]JzTx-V(1-29)], the “% Peptide Remaining” value in series [1] was 100%.
As to `CC[C@H](C)[C@H](NC(=O)[C@@H](NC(=O)[C@H](CCCCN)NC(=O)[C@H](CCCNC(=N)N)NC(=O)[C@@H]1CSSC[C@@H]2NC(=O)[C@H](C)NC(=O)[C@H](CCCNC(=N)N)NC(=O)[C@H](CCCCN)NC(=O)[C@H](CO)NC(=O)[C@H](CC(=O)O)NC(=O)[C@@H]3CSSC[C@H](NC(=O)[C@H](CCCNC(=N)N)NC(=O)[C@H](CC(C)C)NC(=O)CNC(=O)[C@H](CCC(=O)O)NC(=O)[C@H](CSSC[C@H](NC(=O)[C@@H](N)Cc4ccc(O)cc4)C(=O)N[C@@H](CCC(N)=O)C(=O)N[C@@H](CCCCN)C(=O)N[C@@H](Cc4c[nH]c5ccccc45)C(=O)N[C@@H](CCSC)C(=O)N[C@@H](Cc4c[nH]c5ccccc45)C(=O)N[C@@H]([C@@H](C)O)C(=O)N3)NC2=O)C(=O)N[C@@H](CCCCN)C(=O)N[C@@H](CC(C)C)C(=O)N[C@@H](Cc2c[nH]c3ccccc23)C(=O)N1)[C@@H](C)CC)C(N)=O` [compound 2], the IC50 on hNav1.5 [2] is 3 µM and 3.5 µM; on hNav1.5 [6] (manual WCPC, ~20% inactivation, read-out: IC50 of hNav1.5 inhibition), 0.426 µM; in series [8] it was more than 1 µM. For the same compound, on hNav1.7 [3] (1 nM as printed), the “inhibition of hNav1.7 current, in words” value is on record as “complete inhibition”. Further, on hNav1.7 [3] (1 μM), the “block of hNav1.7 current, in words” value was “blocked all Nav1.7 current”. Moreover, the “block of TTX-resistant hNav1.8 current” value on hNav1.8 [4] was “approximately 50%”. Further, on hNav1.8 [4], the “inhibition of hNav1.8 current, in words” value is “only partial inhibition”. The 1.x/1.7 in the series with hNav1.8 [5] (fully non-inactivated) came out at 5724; in the series with hNav1.8 [5] (partially inactivated), 3282; in [7] (fully non-inactivated), 530; in series [7] (partially inactivated), 111. Moreover, on hNav1.5 [6] (3 μM, held at −85 mV), the “block of hNav1.5 current, in words” value is “blocked most Nav1.5 current; also recorded: nearly complete inhibition”. Also, the “block of hNav1.4 current, in words” value on hNav1.4 is recorded as “completely blocked Nav1.4 current; also recorded: complete inhibition”. Moreover, the “block of hNav1.3 current, in words” value on hNav1.3 was “completely blocked Nav1.3 current; also recorded: complete inhibition”. Besides, the “block of TTX-sensitive Nav current, in words” value in series [7] (increasing concentrations, time course) is on record as “blocked nearly all TTX-sensitive Nav current”. Besides, in [8], the “IC50 of TTX-resistant sodium channel current inhibition” value is given as “not measurable”.
Consider `CC[C@H](C)[C@H](NC(=O)[C@H](CO)NC(=O)[C@H](CCCCN)NC(=O)[C@H](CCCNC(=N)N)NC(=O)[C@@H]1CSSC[C@@H]2NC(=O)[C@H](C)NC(=O)[C@H](CCCNC(=N)N)NC(=O)[C@H](CCCCN)NC(=O)[C@H](CO)NC(=O)[C@H](CC(=O)O)NC(=O)[C@@H]3CSSC[C@H](NC(=O)[C@H](CCC(=O)O)NC(=O)[C@H](CC(C)C)NC(=O)CNC(=O)[C@H](CCC(=O)O)NC(=O)[C@H](CSSC[C@H](NC(=O)[C@@H](N)Cc4ccc(O)cc4)C(=O)N[C@@H](CCC(N)=O)C(=O)N[C@@H](CCCCN)C(=O)N[C@@H](Cc4c[nH]c5ccccc45)C(=O)N[C@@H](CCSC)C(=O)N[C@@H](Cc4c[nH]c5ccccc45)C(=O)N[C@@H]([C@@H](C)O)C(=O)N3)NC2=O)C(=O)N[C@@H](CCCCN)C(=O)N[C@@H](CC(C)C)C(=O)N[C@@H](Cc2c[nH]c3ccccc23)C(=O)N1)C(N)=O` [compound 138], for which, at hNav1.7 [9], the Nav1.4/Nav1.7 is 62 and 34. Moreover, the “% Peptide Remaining” value in series [10], in series [11] and in series [12] was 100% each time.

The values are drawn from US10344060B2 (priority 2013, dated 2019).
